Here are results for 3 substances from patent publication US9816103B2, “Methods of enhancing the resistance of plants to bacterial pathogens” (priority 2008, dated 2017).

No end group written: not given here.

The test system of experiment [1] is wild-type leaves of Arabidopsis thaliana Col-0. The experiment is described as follows: Oxidative burst induced by elf18 peptides from phytopathogenic bacteria. Format: cell-based. Conditions: Col-0 leaves; relative to E. coli elf18 positive control.
Experiment [2] relates to wild-type Nb. Nature of the experiment: Early and late defense marker gene expression by RT-PCR, wild-type Nb seedlings. The note with it: 100 nM peptide, 0, 30, 60, 180 min. Format: in vivo, Nicotiana benthamiana. The protocol: (§1) Wild-type and #18 Nb were grown for one week on agar plates, then transferred to liquid culture and were grown for a further week. The expression of PAMP-induced genes was monitored over a time course. Seedlings were treated with 100 nM elf18 or flg22 for 0, 30, 60 or 180 minutes, and frozen in liquid nitrogen.
(§2) In brief: four elicited seedlings were thoroughly ground directly in the supplied extraction buffer in Eppendorf tubes using a pestle on an IKA RW 20 stirrer. Total RNAs were extracted using the Qiagen Rneasy Plant Mini kit. The quality of the extracted RNA was confirmed by running an ethidium bromide-stained agarose gel to reveal rRNAs. DNase treatment was performed using TURBO DNA-free kit (Ambion) and the concentration of total RNA was then measured using a Nanodrop. First strand cDNA synthesis was performed using SuperScript II Reverse Transcriptase (Invitrogen) in combination with Oligo(dT) prime on 2 μg of total RNA. One μl of cDNA was used in PCR under the following conditions: 95° C. 2 min; [95° C. 45 sec; 58° C. 45 sec; 55° C. 30 sec; 72° C. 1.5 min]×25; 72° C. 5 min. The genes used as defense markers were: CYP72D2 (cytochrome P450), FLS2 (receptor kinase for flg22), ACRE132 (putative RING finger protein) and WRKY22 (transcription factor). As loading control the constitutively expressed EF-1α housekeeping gene was also amplified.

Another experiment concerns efr plants. Nature of the experiment: Seedling growth inhibition (fresh weight), Arabidopsis efr. Format: in vivo, Arabidopsis thaliana. Conditions: 0.1-1000 nM peptide, one week. The protocol: (§3) Wild-type, #16 and #18 Nb as well as Col and efr Arabidopsis thaliana seedlings were grown for one week onMS 1% sucrose agar plates, then transferred to liquid culture and were grown for one week in a serial dilution or elf18 or flg22. Dilutions of 0.1, 1, 10, 100 and 1000 nM were used for all five plant lines. Seedlings (n=4) were blotted on absorbent paper and their fresh weight was measured.

Experiment [3] deals with transgenic EFR potatoes (Desiree). Nature of the experiment: Oxidative burst, luminol-based assay, transgenic EFR potatoes. The format is cell-based, Solanum tuberosum. Conditions: 100 nm peptide; positive potato lines; data not shown. The protocol: (§4) To measure the production of reactive oxygen species (ROS) in leaf tissue, size #1 leaf discs (Nb; n=12, tomato and potato; n=8) were floated overnight in water. Each disc was then transferred to a well containing an assay mix of luminol (200 μM) and peroxidase (20 μg/ml) in 100 μl water. Each well was then treated with either: assay mix, 100 nm elf18, or 100 nm flg22. Luminescence in a 96-well plate was subsequently measured using a Flash Varioskan luminometer.
Oxidative burst assays were also conducted with transgenic EFR potatoes (Desiree).

In experiment [4] the test system is primary transformant tomato plants. The experiment is described as follows: Oxidative burst, luminol-based assay, AtEFR tomato primary transformants. Format: cell-based, Solanum lycopersicum. Conditions: 100 nm peptide; ten positive tomato lines; data not shown. The protocol:
as §4
The detection of an oxidative burst is a relatively simple and reliable assay for defense activation. Cumulative luminescence was recorded for each plant over a time course of 40 minutes. […] Several other transformants were unable to express functional AtEFR as they give very little response to elf18, yet are able to respond to flg22 elicitation (data not shown). Other transformants, perhaps due to old age, were unable to respond to elf18 or flg22 treatment (data not shown). The 10 positive lines appear to have acquired EF-Tu responsiveness in this assay. Therefore seeds were harvested to grow homozygous lines for use in further assays to confirm of these initial results.

For another experiment, the system named is EFR Nb. The experiment is described as follows: Callose deposition, aniline blue staining, EFR Nb leaves. Format: in vivo, Nicotiana benthamiana. The note with it: 100 nM peptide infiltrated, ~16 hours, data not shown. On the procedure:
A solution of either water, 100 nM elf18, or 100 nM flg22 was used to infiltrate leaves of 4-week old wild-type and EFR Nb. Size #3 leaf discs (n=8) were sampled after ˜16 hours and destained in methanol overnight. Discs were rinsed in water, then left to stain overnight in a solution of 0.05% aniline blue in 50 mM phosphate buffer pH 8.5. Callose deposition at the plant cell periphery could then be viewed under a fluorescence microscope.

The next experiment has as its system Wild-type Nb plants. The experiment is described as follows: Seedling growth inhibition (fresh weight), wild-type Nb. The format is in vivo, Nicotiana benthamiana. The note with it: 0.1-1000 nM peptide, one week. On the procedure:
as §3

The next experiment deals with EFR (#18) Nb plants. The experiment is described as follows: Oxidative burst, luminol-based assay, EFR transgenic Nb leaf discs. The format is cell-based, Nicotiana benthamiana. The note with it: 100 nM peptide. On the procedure:
(§5) To measure the production of reactive oxygen species (ROS) in leaf tissue, size #1 leaf discs (Nb; n=12, tomato; n=8) were floated overnight in water. Each disc was then transferred to a well containing an assay mix of luminol (200 μM) and peroxidase (20 μg/ml) in 100 μl water. Each well was then treated with either: assay mix, 100 nm elf18, or 100 nm flg22. Luminescence in a 96-well plate was subsequently measured using a Flash Varioskan luminometer.

Experiment [5] deals with wild-type Nb. The experiment is described as follows: Oxidative burst, luminol-based assay, wild-type Nb leaf discs. Format: cell-based, Nicotiana benthamiana. Conditions: 100 nM peptide. The protocol:
as §5

A further experiment relates to EFR plants (#18 Nb). Nature of the experiment: Early and late defense marker gene expression by RT-PCR, EFR Nb seedlings. The format is in vivo, Nicotiana benthamiana. Conditions: 100 nM peptide, 0, 30, 60, 180 min. On the procedure: as §1, §2
For experiment [6], the system named is EFR plants (Nb expressing transgenic AtEFR). The experiment is described as follows: Seedling growth inhibition (fresh weight), EFR Nb. The format is in vivo, Nicotiana benthamiana. The note with it: 0.1-1000 nM peptide, one week. The protocol: as §3
The next experiment deals with Wild-type Col plants. Nature of the experiment: Seedling growth inhibition (fresh weight), Arabidopsis wild-type Col. Format: in vivo, Arabidopsis thaliana. Conditions: 0.1-1000 nM peptide, one week. On the procedure: as §3

Regarding “elf18 Pseudomonas syringae pv. syringae DC3000: synthetic elf18 peptide derived from EF-Tu of Pseudomonas syringae DC3000 (pv. tomato per b37) (MAKEKFDRSLPHCNVGTI; ends and bridges not checked)”, the “eliciting activity (oxidative burst)” value in [1] is listed as “very low eliciting activity”.

Turning to “elf18 Xanthomonas campestris pv campestris 8004 and B100: synthetic elf18 peptide derived from EF-Tu of Xanthomonas campestris pv. campestris 8004 and B100 (MARAKFLREKLHVNVGTI; Xanthomonas campestris pv. campestris 8004)”, the “eliciting activity (oxidative burst)” value in experiment [1] is on record as “very low eliciting activity”.

Consider “elf18: EF-Tu epitope elf18: region of 18 amino-acids at the N-acetylated terminus of eubacterial EF-Tu recognized by EFR (Ac-MARAKFLREKLHVNVGTI)”, for which the “defense marker gene induction” value in the experiment with wild-type Nb [2] is “unable to elicit a significant amount of expression”; with EFR plants (#18 Nb), “marker gene expression which is at least as strong as under flg22 treatment”. Besides, the “seedling growth inhibition (fresh weight)” value is reported as “insensitive” with efr plants, “able to grow in the presence of up to 1000 nM elf18” in the experiment with Wild-type Nb plants, “responsive” in experiment [6] and “decreasing growth as elf18 concentration increases” in the experiment with Wild-type Col plants. The “burst of ROS” value in experiment [3] is given as “considerable burst of ROS”. Besides, the “burst of ROS (cumulative luminescence over 40 minutes)” value in experiment [4] is “considerable burst of ROS”. For the same substance, the callose deposition in the experiment with EFR Nb was “stronger response”. Also, the “release of reactive oxygen species (luminescence)” value in the experiment on EFR (#18) Nb plants is given as “peak of luminescence corresponding to a burst of ROS”; with wild-type Nb [5] it was “never revealed a burst of ROS”.
